Results: patent US7550613B2, “Compounds” (Pronova Biopharma Norge AS, priority 2005, dated 2009)

Test: Effect of DHA derivatives in adipose prone mice during 4 months of dietary interventions (Example 5a)
Type: in vivo, male C57BL/6 mice
Conditions: for Body wt. gain / Body weight / NEFA / Insulin / TAGs: 4 months; for Body weight: * = significant vs cHF (P<0.05); for AUCglucose: intraperitoneal glucose tolerance test; for NEFA: non-esterified fatty acids; for Insulin: plasma; for TAGs: serum triglycerides
Protocol: All experiments were performed on male C57BL/6 mice, either a substrain C57BL/N (supplier: Charles River, Germany, n=160, experiments A-C, see below), or a substrain C57BL/6J (supplier: the Jackson laboratory, Bar Harbor, Me., USA, n=32, experiment D). Total numbers of animals used were higher (n=170 and 36, respectively), because of culling. In the latter case, animals were bred for several generations (<20) at the Institute of Physiology. At the beginning of the treatment, animals were 14-week-old and their body weight range was 23.6-27.1 g. One week before the study start, animals were sorted according to their body weight and assigned to subgroups (n=8) of similar mean body weight. This method allowed for culling of about 5-10% of animals showing the lowest and highest body weight, respectively. The animals eliminated from the study at this stage were sacrificed by cervical dislocation. Complete health check of mice was performed by the supplier Charles River and at the start of study serological tests were performed by ANLAB (Prague, Czech Republic). In addition, regular health checks were performed in the animal house in 3-mo-intervals using sentinel mice and serological examinations (ANLAB). In all the tests, the animals were free of specific pathogens.
• (i) Chow diet (ssniff R/M-H from SSNIFF Spezialdieten Gmbh, Soest, Germany; see also http://ssniff.de) with protein, fat and carbohydrate forming 33, 9, and 58 energy %, respectively • (ii) High-fat diet prepared in the laboratory (cHF diet) with protein, fat and carbohydrate forming 15, 59, and 26 energy %, respectively, and well characterized fatty acid composition (with most of the lipids coming from corn oil; see Ruzickova 2004) • (iii) cHF diets in which 0.15, 0.5, and 1.5% of fat (specifically the corn oil constituent) was replaced by various PRB-compounds, namely PRB1, PRB2, PRB5, PRB7, and PRB8, or by DHA. All these compounds were in the form of ethyl esters, provided by Pronova Biocare a.s. in sealed containers. Chemical composition of the PRB-compounds was unknown to the laboratory performing the experiments (Institute of Physiology, Academy of Sciences Prague, Czech Republic).
The study was based on 4 individual experiments. In each of the experiments, different PRB-compounds (or DHA, respectively) admixed to cHF diet in three different concentrations (0.15, 0.5, and 1.5% of the fat content) were tested. In each experiment, a subgroup of plain cHF diet-fed mice was included and served as a control. Mice were caged in groups of 4 and fed standard chow diet until 3 mo of age, when animals (n=8-13) were randomly assigned to the different test diets. After 2 mo on this new diet (at 5 mo of age), animals were fasted overnight and in the morning, intraperitoneal Glucose Tolerance Test (GTT) was performed. Animals were sacrificed after 4 months on the experimental diets, at 7 mo of age, and the end-point analysis were performed.

CC/C=C\C/C=C\C/C=C\C/C=C\C/C=C\C/C=C\CC(SCC)C(=O)OCC (stereo not drawn) [PRB-7, α-tioethyl docosahexaenoic acid ethyl ester]
Fasted glucose (0.15% concentration): 141 ± 9 mg/dL
Fasted glucose (0.5% concentration): 152 ± 6 mg/dL
Fasted glucose (1.5% concentration): 120 ± 9 mg/dL
Body wt. gain (0.15% concentration): 23.2 ± 0.7 grams
Body weight (0.15% concentration): 47.4 ± 0.8* grams
Body wt. gain (0.5% concentration): 24.8 ± 0.8 grams
Body weight (0.5% concentration): 48.8 ± 0.9 grams
Body wt. gain (1.5% concentration): 21.7 ± 0.9 grams
Body weight (1.5% concentration in cHF diet): 45.9 ± 1.1* grams
AUCglucose (0.15% concentration): 1425 ± 97 mM × 180 min
AUCglucose (0.5% concentration): 1674 ± 203 mM × 180 min
AUCglucose (1.5% concentration): 1122 ± 73 mM × 180 min
NEFA (0.15% concentration): 0.85 ± 0.06 mmol/L
NEFA (0.5% concentration): 0.87 ± 0.04 mmol/L
NEFA (1.5% concentration): 0.82 ± 0.06 mmol/L
Insulin (0.15% concentration): 3.76 ± 0.72 ng/mL
Insulin (0.5% concentration): 4.10 ± 0.57 ng/mL
Insulin (1.5% concentration): 4.42 ± 0.87 ng/mL
TAGs (0.15% concentration): 1.41 ± 0.11 mmol/L
TAGs (0.5% concentration): 1.42 ± 0.08 mmol/L
TAGs (1.5% concentration): 1.15 ± 0.08 mmol/L
